# Data reported in paper PMC6650409, “Modeling the binding of diverse ligands within the Ah receptor ligand binding domain” (Scientific Reports, 2019).
# Residue numbers refer to the chain shown, from its start. Where two headings read alike, the source gives them in different places.
# Tests used:
# M342A mutant AhR = molecular target: T1, M342A mutant AhR (Mus musculus, UniProt P30561, M342A); test: [3H]TCDD competitive ligand binding, M342A mutant AhR; details: for change of relative binding affinity versus wild-type AhR: M342A substitution, in words; for IC50: Table S6, AhR mutant M342A
# T1 construct: made in house; host or cells: in vitro, Promega TNT Quick rabbit reticulocyte lysate
# T1 sequence (P30561 10-848 M342A): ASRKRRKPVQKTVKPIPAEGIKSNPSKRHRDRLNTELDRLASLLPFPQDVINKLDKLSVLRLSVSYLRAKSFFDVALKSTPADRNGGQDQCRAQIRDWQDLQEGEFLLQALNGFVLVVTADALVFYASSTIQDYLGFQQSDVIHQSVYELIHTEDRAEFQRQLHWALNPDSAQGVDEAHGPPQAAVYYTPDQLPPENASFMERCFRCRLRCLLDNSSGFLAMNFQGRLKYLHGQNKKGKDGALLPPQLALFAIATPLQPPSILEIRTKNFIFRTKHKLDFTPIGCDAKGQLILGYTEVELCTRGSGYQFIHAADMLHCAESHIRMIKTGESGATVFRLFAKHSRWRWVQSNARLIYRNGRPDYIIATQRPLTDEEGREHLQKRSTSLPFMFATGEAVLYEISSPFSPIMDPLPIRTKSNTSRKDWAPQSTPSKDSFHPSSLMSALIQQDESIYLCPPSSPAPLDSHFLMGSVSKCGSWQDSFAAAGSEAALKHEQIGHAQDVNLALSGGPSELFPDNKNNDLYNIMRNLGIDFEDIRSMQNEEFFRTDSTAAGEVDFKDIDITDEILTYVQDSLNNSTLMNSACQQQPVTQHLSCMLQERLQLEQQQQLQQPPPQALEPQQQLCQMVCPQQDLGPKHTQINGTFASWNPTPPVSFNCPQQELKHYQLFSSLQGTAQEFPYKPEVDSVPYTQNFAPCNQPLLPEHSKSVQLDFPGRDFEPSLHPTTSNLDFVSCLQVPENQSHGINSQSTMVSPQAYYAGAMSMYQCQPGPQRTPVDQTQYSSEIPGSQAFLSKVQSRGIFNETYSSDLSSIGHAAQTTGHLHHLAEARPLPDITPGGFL
# Method: (§1) The mouse AhR (mAhR) and ARNT (mARNT) expression plasmids, mβAhR/pcDNA3 and mβArnt/pcDNA3, have been previously described. Point mutations of mβAhR/pcDNA3 were carried out using the QuikChange Lightning Mutagenesis Kit (Agilent Technologies) and all constructs were verified by sequencing.
# (§2) [^3H]TCDD specific binding to wild-type or mutant mAhRs synthesized in vitro using the Promega TNT Quick coupled transcription/translation rabbit reticulocyte lysate kit (Madison, WI) was carried out as previously described. [^3H]TCDD specific binding was determined by subtracting the amount of [^3H]TCDD bound to unprogrammed lysate (nonspecific binding) from the total amount of [^3H]TCDD binding to lysate containing in vitro expressed AhR. The amount of [^3H]TCDD specific binding remaining in the presence of the indicated competitor chemical was expressed as a percent of the total [^3H]TCDD specific binding. The relative binding affinity (IC50) of each chemical was determined from concentration-dependent competitive inhibition curves obtained using [^3H]TCDD and increasing concentrations of each test chemical and the mean IC50 value was determined using three-parameter non-linear regression.
# C327A mutant AhR = molecular target: T2, C327A mutant AhR (Mus musculus, UniProt P30561, C327A); test: [3H]TCDD competitive ligand binding, C327A mutant AhR; details: for change of relative binding affinity versus wild-type AhR: C327A mutation, in words; for IC50: Table S6, AhR mutant C327A
# T2 construct: made in house; host or cells: in vitro, Promega TNT Quick rabbit reticulocyte lysate
# T2 sequence (P30561 10-848 C327A): T1 sequence (P30561 10-848 M342A) with C318A, A333M
# Method: as §1, §2
Structure (SMILES),change of relative binding affinity versus wild-type AhR (M342A mutant AhR),IC50 (M342A mutant AhR),change of relative binding affinity versus wild-type AhR (C327A mutant AhR),IC50 (C327A mutant AhR; read-out: IC50),IC50 (C327A mutant AhR; read-out: -LogIC50 (converted))
"Cc1ccc2cc3c(ccc4ccccc43)c3c2c1CC3 [3MC, 3-methylcholanthrene]",reduced,248 nM,–,–,–
O=c1cc(-c2ccccc2)oc2ccc3ccccc3c12 [BNF],not affected,9.6 nM,significantly decreased,40.5 nM,–
"c1ccc2c(c1)ccc1cc3c(ccc4ccccc43)cc12 [DBA, dibenz(a,h)anthracene]",not affected,6.72 nM,no significant effect,14.6 nM,14.8 nM
"O=Cc1c2[nH]c3ccccc3c2cc2[nH]c3ccccc3c12 [FICZ, 6-formylindolo[3,2-b]carbazole]",–,0.0207 nM,no significant effect,4.32 nM,–
"Clc1ccc(-c2cc(Cl)c(Cl)c(Cl)c2)cc1Cl [PCB126, 3,3′4,4′5-pentachlorobiphenyl]",reduced,9.33 nM,–,–,–
